Laboratory results taken from ChEMBL document CHEMBL5154686, “Discovery of G2019S-Selective Leucine Rich Repeat Protein Kinase 2 inhibitors with in vivo efficacy” (Eur J Med Chem, 2022).

What was measured:
[1] = Ratio of drug level in brain to plasma in CD-1 mouse plasma at 0.4 mg/kg, iv by LC-MS/MS analysis; assay type: ADME, organism-based; conditions: brain and plasma, read-out: BPR
[2] = AUC infinity in CD-1 mouse plasma at 0.4 mg/kg, iv by LC-MS/MS analysis; assay type: ADME, organism-based; set-up: time infinity, dose 0.4 mg/kg, route iv
in vitro [3] = conditions: human, Caco-2
[4] = Half life in CD-1 mouse plasma at 2 mg/kg, po by LC-MS/MS analysis; assay type: ADME, organism-based
[5] = MRT in CD-1 mouse plasma at 0.4 mg/kg, iv by LC-MS/MS analysis; assay type: ADME, organism-based
[6] = Ratio of drug level in brain to plasma in CD-1 mouse plasma at 2 mg/kg, po by LC-MS/MS analysis; assay type: ADME, organism-based; conditions: brain and plasma, read-out: BPR
[7] = Clearance in CD-1 mouse plasma at 0.4 mg/kg, iv by LC-MS/MS analysis; assay type: ADME, organism-based
[8] = AUC infinity in CD-1 mouse plasma at 2 mg/kg, po by LC-MS/MS analysis; assay type: ADME, organism-based; set-up: time infinity, dose 2 mg/kg, route po
[9] = Tmax in CD-1 mouse plasma at 2 mg/kg, po by LC-MS/MS analysis; assay type: ADME, organism-based
[10] = MRT in CD-1 mouse plasma at 2 mg/kg, po by LC-MS/MS analysis; assay type: ADME, organism-based
[11] = Cmax in CD-1 mouse plasma at 2 mg/kg, po by LC-MS/MS analysis; assay type: ADME, organism-based; set-up: dose 2 mg/kg, route po
in vitro [12] = conditions: human, Caco-2; remark: listed apart in the source
[13] = Oral bioavailability in CD-1 mouse plasma at 2 mg/kg by LC-MS/MS analysis; assay type: ADME, organism-based
in vitro [14] = conditions: mouse, liver microsomes
[15] = Half life in CD-1 mouse plasma at 0.4 mg/kg, iv by LC-MS/MS analysis; assay type: ADME, organism-based
in vitro [16] = conditions: human, liver microsomes
[17] = Cmax in CD-1 mouse plasma at 0.4 mg/kg, iv by LC-MS/MS analysis; assay type: ADME, organism-based; set-up: dose 0.4 mg/kg, route iv

Row | Structure (SMILES) | Kp [1] | AUC(0-inf) [2] | Papp B→A (in vitro [3]) | half-life [4] | MRT [5] | Kp [6] | clearance [7] | AUC(0-inf) [8] | Tmax [9] | MRT [10] | Cmax [11] | Papp A→B (in vitro [12]) | bioavailability [13] | half-life (in vitro [14]) | half-life [15] | half-life (in vitro [16]) | Cmax [17]
1 | N#Cc1ccc2c(c1)CCC[C@@H]2Nc1ccc2[nH]nc(-c3ccncc3)c2c1 | 1.8 | 0.27 µM·h | 7.3 ×10⁻⁶ cm/s | 90 min | 48 min | 0.8 | 68.4 mL/min | 1.49 µM·h | 30 min | 152 min | 470 nM | 8.9 ×10⁻⁶ cm/s | 112% | 17.7 min | 42 min | 33 min | 340 nM
2 | N#Cc1ccc2c(c1)OCC[C@H]2Nc1ccc2[nH]nc(-c3ccncc3)c2c1 | 1 | 0.14 µM·h | 25 ×10⁻⁶ cm/s | 88.2 min | 24.6 min | 0.5 | 94.9 mL/min | 1.29 µM·h | 30 min | 145 min | 460 nM | 19 ×10⁻⁶ cm/s | 147% | 10.3 min | 18 min | 38 min | 280 nM
3 | Cc1cc(-c2n[nH]c3ccc(N[C@H]4CCCc5cc(C#N)ccc54)cc23)cc(C)n1 |  |  | 4 ×10⁻⁶ cm/s |  |  |  |  |  |  |  |  | 4.6 ×10⁻⁶ cm/s |  | 11.7 min |  | 15 min | 

Next, values leading:

Row | Kp [1] | AUC(0-inf) [2] | Papp B→A (in vitro [3]) | half-life [4] | MRT [5] | Kp [6] | clearance [7] | AUC(0-inf) [8] | Tmax [9] | MRT [10] | Cmax [11] | Papp A→B (in vitro [12]) | bioavailability [13] | half-life (in vitro [14]) | half-life [15] | half-life (in vitro [16]) | Cmax [17] | Structure (SMILES)
4 |  |  | 4.1 ×10⁻⁶ cm/s |  |  |  |  |  |  |  |  | 13 ×10⁻⁶ cm/s |  | 15.4 min |  | 22 min |  | Cc1cc(-c2n[nH]c3ccc(N[C@H]4CCCc5cc(C#N)ccc54)cc23)ccn1
5 | 0.3 | 0.4 µM·h | 0.8 ×10⁻⁶ cm/s | 104 min | 51.6 min | 0.1 | 36.6 mL/min | 1.64 µM·h | 30 min | 175 min | 500 nM | 6.2 ×10⁻⁶ cm/s | 80% | 12.7 min | 42 min | 30 min | 480 nM | N#Cc1ccc2c(c1)CCC[C@H]2Nc1ccc2[nH]nc(-c3ccnc(N4CCOCC4)c3)c2c1
6 | 0.5 | 0.16 µM·h | 6.8 ×10⁻⁶ cm/s | 107 min | 30.6 min | 0.1 | 65.1 mL/min | 1.06 µM·h | 3000 min | 162 min | 390 nM | 1.8 ×10⁻⁶ cm/s | 77% | 12.8 min | 24 min | 22 min | 310 nM | Cc1cc(-c2n[nH]c3ccc(N[C@@H]4CCCc5cc(C#N)ccc54)cc23)ccn1
7 |  |  | 11 ×10⁻⁶ cm/s |  |  |  |  |  |  |  |  | 8.1 ×10⁻⁶ cm/s |  | 12.4 min |  | 26 min |  | N#Cc1ccc2c(c1)CCC[C@H]2Nc1ccc2[nH]nc(-c3ccncc3)c2c1
